The subject of one experiment is myocardium. The conditions noted are these: cited from earlier work.
A further experiment deals with isolated rat hearts. Description: Tracer uptake versus palmitate beta-oxidation rate in isolated perfused rat hearts. Set-up: species or system Sprague Dawley rats. The conditions noted are these: Langendorff perfusion, 0.15 mM palmitate, 5 mM glucose; both normoxic (95% oxygen) and hypoxic (35% oxygen) conditions. As to the method: Model 4-thia analogs (16-[^18F]fluoro-4-thia-hexadecanoic acid and 12-[^18F]fluoro-4-thia-dodecanoic acid) were examined as tracers in isolated rat hearts. The perfusate was Krebs-Hensleit buffer with 1% albumin, 0.15 mM palmitate, and 5 mM glucose. Sprague Dawley rats (200-225 g) were fed ad libetum. The hearts were excised from pentobarbital-anesthetized animals and perused at 7 ml/min in Langendorff retrograde fashion. The perfusate was gassed with either 95% oxygen (normoxic) or 35% oxygen (hypoxic) gas mixture. The gases comprising the remaining fraction were nitrogen and carbon dioxide (5% for both). The tracer was administered as a bolus or as a pulse infusion into the isolated rat hearts. Pulse infusion allowed absolute quantification of ^18F accumulation rates that reflect the metabolic rate of the tracer in the heart. Clearance rates are measured during the washout phase of these experiments. Beta-oxidation rates of 9,10[^3H] palmitate were measured by collection of venous effluent samples and separation of titrated water.

Experiment [1] can be described thus: PET imaging studies in patients with ischemic cardiomyopathy. In kind it is in vivo. Particulars: same subjects. As to the method: PET imaging studies were performed with 16F4THA in patients with ischemic cardiomyopathy. Conventional nuclear medicine perfusion scans were obtained in the same subjects.

The text below walks through data of patent US6362352B1, “F18-labeled thia fatty acids and methods of making and using the same” (Duke University, priority 1999, dated 2002).

Regarding `CCCC([18F])CCCCCCCSCCCCC(=O)O` (stereo not shown) [Compound 14F6THA], the “tracking of beta-oxidation of palmitate” value in the experiment on myocardium (a number of conditions) is on record as “tracks beta-oxidation of palmitate”. The “sensitivity to inhibition of beta-oxidation in myocardium” value in the experiment with myocardium (hypoxia with normal blood flow) is “insensitive”.

`O=C(O)CCCCSCCCCCCCCCCC[18F]` [Compound 17F6THA, 17-[^18F]Fluoro-6-thia-heptadecanoic acid]: the “correlation of beta-oxidation rates with uptake rates of the tracer (r)” value in the experiment on isolated rat hearts was “poor correlation”. Consider `O=C(O)CCSCCCCCCCCCCCC[18F]` [Compound 16F4THA, 16-[^18F]Fluoro-4-thia-hexadecanoic acid], for which the “quality of PET scans compared with conventional nuclear medicine perfusion scans” value in experiment [1] was “superior quality”.
